Test results taken from publication PMC13192270, “RhlR quorum-sensing receptor ligand sensitivity regulates the differential expression of phenazine genes in Pseudomonas aeruginosa” (Journal of Bacteriology, 2026).

Tested on: ΔrhlI strain expressing RhlR A44M
Test: RNA-seq gene expression
Format: cell-based, Pseudomonas aeruginosa
Set-up: opmD Expression value / mexI Expression value / mexH Expression value / mexG Expression value / lasB Expression value / rhlA Expression value / rhlB Expression value / rhlR Expression value / lecB Expression value / fhp Expression value / chiC Expression value / hcnA Expression value / mvfR Expression value / katB Expression value / norC Expression value / norB Expression value / katA Expression value: unit not given here
Conditions: 2 µM C4HSL
Method: To determine the effects of hypo- and hypersensitivity to C4HSL on RhlR-dependent transcription activation in P. aeruginosa, we performed RNA-seq on ΔrhlI strains expressing WT RhlR, RhlR T58L, and RhlR A44M in the presence of 2 µM C4HSL. We chose this approach to better control the levels of C4HSL across samples. All gene expression analyses were done relative to a ΔrhlI strain without exogenous supplementation of AHL. Thus, we examined the total increase in C4HSL-dependent gene regulation. We observed increased rhlA RNA levels in strains expressing WT RhlR and the RhlR T58L variant compared to ΔrhlI without C4HSL or a strain expressing the RhlR A44M variant (Table 2; Table S1). […] To corroborate our RNA-seq data, we built an rhlA promoter fusion to mScarlet and assayed reporter levels in the same genetic backgrounds as our transcriptomic experiment (Fig. S7D). Strains expressing hypersensitive RhlR variants produced similar levels of fluorescent signal relative to the WT strain, while a strain expressing a hyposensitive RhlR variant had diminished levels of fluorescent reporter (Fig. S7D).
A total of […] of overnight cultures was back diluted 1:100 in 20 mL of fresh LB media and incubated for 5 h at 37°C with shaking. Cells were harvested by centrifugation, and pellets were frozen until RNA extraction. RNA was extracted using the Invitrogen PureLink RNA Mini Kit. Pellets were resuspended in 100 µL lysozyme solution containing 10 mM Tris-HCl pH 8.0, 0.1 mM EDTA, and 1 mg/mL lysozyme. Five microliters of 1% SDS was added, and the solution was mixed with a vortex and incubated at room temperature for 5 min. A total of 350 µL lysis buffer (Invitrogen) was added with 10 µL 2-mercaptoethanol for each 1 mL of lysis buffer and vortexed. Cells were lysed by bead beating (BioSpec 0.1 MM Zirconia/Silica Beads) for two rounds of 50 s. Lysed cells were transferred to fresh microcentrifuge tubes with 250 µL of 100% ethanol and mixed with a vortex. Samples were spun in spin cartridges (Invitrogen) at 12,000 × g for 15 s at room temperature, and the flow-through was discarded. A total of 700 µL Wash Buffer I (Invitrogen) was added and spun at 12,000 × g for 15 s at room temperature, and the flow-through was discarded. A total of 500 µL Wash Buffer II (Invitrogen) with ethanol was added and centrifuged for 12,000 × g for 15 s at room temperature; the flow-through was discarded, and RNA samples were washed again. Cells were spun at 12,000 × g for 1 min at room temperature to dry the membrane with the bound RNA. A total of 50 µL RNAse-free water was added to the center of the spin cartridge, incubated at room temperature for 1 min, and centrifuged for 2 min at ≥12,000 × g at room temperature. Extracted RNA was then frozen at −80°C until further use.
Bulk RNA was sent to SeqCenter (Pittsburgh, PA) where it was processed for paired-end Illumina sequencing via rRNA depletion using Ribo-Zero Plus (Illumina). Fastq files generated by SeqCenter were processed using Rockhopper with default settings ([61][–][63]). Briefly, fastq files were aligned to the genome of Pseudomonas aeruginosa UCBPP-PA14. The reads were subsequently normalized using upper-quartile normalization, and transcript abundance was determined by reads per kilobase per million mapped reads. Differential gene expression analysis was conducted using a negative binomial distribution model, outputting a P-value for each transcript. The P-values were then corrected for false discovery using the Benjamini-Hochberg procedure, resulting in the q-values reported here (Table S2). SignalMap v2.0 (NimbleGen Systems) was used to visualize read counts for phzABCDEFG1/2, phzH, phzM, and phzS (Fig. 5). Aligned sequences generated in Rockhopper were converted to GFF files, and genes of interest were isolated into unique GFF files ([37]).

CCCC(=O)N[C@H]1CCOC1=O [C4HSL, N-butyryl-L-homoserine lactone]
chiC Expression value: 132,918.5 | fhp Expression value: 8,878 | hcnA Expression value: 38,430 | katA Expression value: 3,887,333 | katB Expression value: 13,211.5 | lasB Expression value: 6,614,384 | lecB Expression value: 208,420 | mexG Expression value: 4,729.5 | mexH Expression value: 11,247.5 | mexI Expression value: 15,683.5 | mvfR Expression value: 214,018 | norB Expression value: 28,591 | norC Expression value: 12,922.5 | opmD Expression value: 6,012 | phnA Expression value: 2,884,404 | phnB Expression value: 694,083 | phzA1 Expression value: 8,661 | phzA2 Expression value: 11,533 | phzB1 Expression value: 163,479 | phzB2 Expression value: 178,704.5 | phzC1 Expression value: 135,611.5 | phzC2 Expression value: 156,044 | phzD1 Expression value: 153,729 | phzD2 Expression value: 137,242.5 | phzE1 Expression value: 282,659.5 | phzE2 Expression value: 202,642.5 | phzF1 Expression value: 137,969 | phzF2 Expression value: 139,410.5 | phzG1 Expression value: 118,586 | phzG2 Expression value: 88,845 | phzM Expression value: 93,038 | phzS Expression value: 303,377 | pqsA Expression value: 3,743,059.5 | pqsB Expression value: 5,794,985 | pqsC Expression value: 5,614,134 | pqsD Expression value: 6,055,112.5 | pqsE Expression value: 3,188,208 | rhlA Expression value: 200,100.5 | rhlB Expression value: 165,369.5 | rhlR Expression value: 581,659 | chiC Log2fold change (vs ΔrhlI without AHL): −0.05904 | fhp Log2fold change (vs ΔrhlI without AHL): 0.2001 | hcnA Log2fold change (vs ΔrhlI without AHL): 0.2595 | katA Log2fold change (vs ΔrhlI without AHL): 0.3253 | katB Log2fold change (vs ΔrhlI without AHL): 0.1017 | lasB Log2fold change (vs ΔrhlI without AHL): 1.048 | lecB Log2fold change (vs ΔrhlI without AHL): −0.7762 | mexG Log2fold change (vs ΔrhlI without AHL): 0.2215 | mexH Log2fold change (vs ΔrhlI without AHL): 0.2256 | mexI Log2fold change (vs ΔrhlI without AHL): −0.1584 | mvfR Log2fold change (vs ΔrhlI without AHL): −0.1373 | norB Log2fold change (vs ΔrhlI without AHL): −0.5108 | norC Log2fold change (vs ΔrhlI without AHL): −0.6332 | opmD Log2fold change (vs ΔrhlI without AHL): −0.2426 | phnA Log2fold change (vs ΔrhlI without AHL): 0.3171 | phnB Log2fold change (vs ΔrhlI without AHL): 0.2753 | phzA1 Log2fold change (vs ΔrhlI without AHL): −1.792 | phzA2 Log2fold change (vs ΔrhlI without AHL): 0.1326 | phzB1 Log2fold change (vs ΔrhlI without AHL): −1.046 | phzB2 Log2fold change (vs ΔrhlI without AHL): −0.2412 | phzC1 Log2fold change (vs ΔrhlI without AHL): −0.6965 | phzC2 Log2fold change (vs ΔrhlI without AHL): −0.2301 | phzD1 Log2fold change (vs ΔrhlI without AHL): −0.5047 | phzD2 Log2fold change (vs ΔrhlI without AHL): −0.458 | phzE1 Log2fold change (vs ΔrhlI without AHL): −0.5209 | phzE2 Log2fold change (vs ΔrhlI without AHL): −0.574 | phzF1 Log2fold change (vs ΔrhlI without AHL): −0.731 | phzF2 Log2fold change (vs ΔrhlI without AHL): −0.7224 | phzG1 Log2fold change (vs ΔrhlI without AHL): −0.7812 | phzG2 Log2fold change (vs ΔrhlI without AHL): −0.325 | phzM Log2fold change (vs ΔrhlI without AHL): −1.898 | phzS Log2fold change (vs ΔrhlI without AHL): −1.303 | pqsA Log2fold change (vs ΔrhlI without AHL): 0.5012 | pqsB Log2fold change (vs ΔrhlI without AHL): 0.621 | pqsC Log2fold change (vs ΔrhlI without AHL): 0.5508 | pqsD Log2fold change (vs ΔrhlI without AHL): 0.4552 | pqsE Log2fold change (vs ΔrhlI without AHL): 0.3409 | rhlA Log2fold change (vs ΔrhlI without AHL): −0.336 | rhlB Log2fold change (vs ΔrhlI without AHL): 0.3232 | rhlR Log2fold change (vs ΔrhlI without AHL): −0.1335
